According to patent US8697746B2, “Solid dispersion of alpha-ketoamide derivatives” (Senju Pharmaceutical Co., Ltd., priority 2010, dated 2014):

Assay: Dissolved amount in water (Test Example 1)
Type: physicochemical
Conditions: 5 mg sample in 1 mL water, shaken, supernatant measured by HPLC
Procedure: Each of the above-prepared Formulation 1 and the solid dispersions of Formulations 2 to 6 was separately dispersed in water. Sampling from each solution was performed at 15, 30, and 60 minutes after dispersion, and the concentration of ((1S)-1-((((1S)-1-benzyl-2,3-dioxo-3-(cyclopropylamino)propyl)amino) carbonyl)-3-methylbutyl)carbamic acid 5-methoxy-3-oxapentyl ester was measured according to the procedure shown below.
To 5 mg of each of the above-prepared Formulation 1 and the solid dispersions of Formulations 2 to 6, 1 mL of water was added and the mixture was shaken with a shaker (Labindustries Inc., Labquake Shaker L1237). Shaking was stopped when the predetermined sampling time elapsed, and centrifugation at 13000 rpm was immediately performed at 25° C. for 5 minutes with a centrifugal separator (Kendro Lab Products, Sorvall Biofuge Fresco) to give a supernatant. A sample solution was prepared by mixing 0.5 mL of methanol to 0.5 mL of the supernatant and then measured for concentration of ((1S)-1-((((1S)-1-benzyl-2,3-dioxo-3-(cyclopropylamino)propyl)amino)carbonyl)-3-methylbutyl) carbamic acid 5-methoxy-3-oxapentyl ester by HPLC (Shimadzu, 10A-VP system).
Detector: ultraviolet absorptiometer (detection wavelength: 252 nm)
Column: YMC-Pack ODS-A (inside diameter: 4.6 mm, length: 250 mm, particle diameter: 5 μm, YMC)
Column temperature: constant temperature at around 40° C. […]

With `COCCOCCOC(=O)N[C@@H](CC(C)C)C(=O)N[C@@H](Cc1ccccc1)C(=O)C(=O)NC1CC1` [((1S)-1-((((1S)-1-benzyl-2,3-dioxo-3-(cyclopropylamino)propyl)amino)carbonyl)-3-methylbutyl)carbamic acid 5-methoxy-3-oxapentyl ester] the “dissolved amount in water” value was 0.45 mg/mL.
